Assay results published in patent publication US10966962B2, “Method for treating neurodegenerative diseases” (THE BOARD OF TRUSTEES OF THE LELAND STANFORD JUNIOR …, priority 2014, dated 2021).

Assays:
[1] = system: brain perivascular macrophages; assay: Brain perivascular macrophage iNOS, IL6, TNFα in ALS transgenic animals; type: in vivo, mice; conditions: 25 mg/kg orally 3 times a week for 8 weeks, 13 weeks of age
Procedure: ALS transgenic animals were purchased from Jackson Laboratories. These animals express the G93A mutation in the gene SOD1 which has been implicated as the cause of the disease in a subset of human subjects with familial ALS. […] These animals represent a gold standard model for therapeutic discovery in the field of ALS research. ALS transgenic animals were orally treated 3 times a week for 8 weeks with 0.5% methylcellulose or ZLN005 (Sigma) at 25 mg/kg in 0.5% methylcellulose, starting at 5 weeks of age. For study of brain perivascular macrophages, ALS-Ctrl (n=8), ALS-ZLN (n=12), and WT animals (n=12) were sacrificed at 13 weeks of age. PBS-perfused brain tissues of sacrificed animals were digested with Collagenase IV and processed for flow cytometry. Brain perivascular macrophages were phenotyped with antibodies directed against mouse iNOS, IL6, and TNFα (Biolegend) for flow cytometric acquisition (LSRII, BD) and analysis (FlowJo). The results are summarized in FIG. 16; Y-axis represents % of brain perivascular macrophages that express iNOS (A), IL6 (B) and TNFα (C). […] ANOVA was used for statistical analyses.

[2] = system: CD115+CD11b+blood monocytes; assay: Systemic inflammation in ALS transgenic animals (blood monocytes, serum TNF-α ELISA); type: in vivo, mice; conditions: 25 mg/kg orally 3 times a week for 8 weeks
Procedure: ALS transgenic animals were orally treated 3 times a week for 8 weeks with 0.5% methylcellulose or ZLN005 (Sigma) at 25 mg/kg in 0.5% methylcellulose, starting at 5 weeks of age. For measuring the frequency of CD115+CD11b+blood monocytes, ALS-Ctrl transgenic animals (n=10), ALS-ZLN (n=10), and WT animal (n=10) were sacrificed at 13 weeks of age. The Y-axis in FIGS. 21A and 21B represents % of total monocytes and % of Ly6C+ inflammatory monocytes among circulating immune cells.

Structure (SMILES): CC(C)(C)c1ccc(-c2nc3ccccc3[nH]2)cc1 [ZLN005, 2-(4-tert-butylphenyl)-1H-benzimidazole]
- IL6 production in brain perivascular macrophages [1]: suppressed, although these differences did not reach statistical significance
- TNFα production in brain perivascular macrophages [1]: suppressed, although these differences did not reach statistical significance
- iNOS production in brain perivascular macrophages [1]: decreased
- % of Ly6C+ inflammatory monocytes among circulating immune cells ([2]; 13 weeks of age): decreased
- % of total monocytes among circulating immune cells ([2]; 13 weeks of age): decreased
- serum levels of TNF-α ([2]; ELISA): significantly suppressed
